{
  "source": "patent US20110045100A1",
  "about": "“Antimalarial Quinolines and Methods of Use Thereof” (GEORGETOWN UNIVERSITY, priority 2008, published 2011)",
  "key": {"[1]": {"system": "Dd2 (chloroquine resistant strain of P. falciparum)", "assay": "SYBR Green I antiplasmodial assay, strain Dd2", "type": "cell-based, Plasmodium falciparum", "settings": "strain Dd2", "source_text": "Bennett T. N.; Paguio, M.; Gligorijevic, B.; Seudieu, C.; Kosar, A. D.; Davidson, E.; Roepe, P. D. Novel, rapid, and inexpensive cell-based quantification of antimalarial drug efficacy. Antimicrob. Agents Chemother. 2004, 48, 1807-1810; Smilkstein, M.; Sriwilaijaroen, N.; Kelly, J. X.; Wilairat, P.; Riscoe, M. Simple and inexpensive fluorescence-based technique for high-throughput antimalarial drug screening. Antimicrob. Agents Chemother. 2004, 48, 1803-1806; and Johnson, J. D.; Dennull, R. A.; Gerena, L.; Lopez-Sanchez, M.; Roncal, N. E.; Waters, N.C. Assessment and continued validation of the malaria SYBR green I-based fluorescence assay for use in malaria drug screening. Antimicrob. Agents Chemother. 2007, 51, 1926-1933. […] Drake, N. L.; Creech, H. J.; Garman, J. A.; Haywood, S. T.; Peck, R. M.; van Hook, J. O.; Walton, E. Synthetic antimalrials. The preparation of certain 4-aminoquinolines. J. Am. Chem. Soc. […] Trans. R. Soc. Trop. Med. Hyg. […] J. Parasitol. 1983, 69, 97-105. The selectivity index provides a quantitative measure of the antimalarial activity against CQR strains relative to that against sensitive strains and thus indicates promising drug discovery leads. […] This can be combined with the introduction of a third basic amino function which should further favor accumulation of the drug within the acidic food vacuole of the parasite.\nThe antiplasmodial activity of these compounds was measured versus a CQS (HB3) and a CQR (Dd2) strain using a standardized, inexpensive assay based on SYBR Green I intercalation. Bennett T. N.; Paguio, M.; Gligorijevic, B.; Seudieu, C.; Kosar, A. D.; Davidson, E.; Roepe, P. D. Antimicrob. Agents Chemother. 2004, 48, 1807-1810; Smilkstein, M.; Sriwilaijaroen, N.; Kelly, J. X.; Wilairat, P.; Riscoe, M. Antimicrob. Agents Chemother. 2004, 48, 1803-1806; and Johnson, J. D.; Dennull, R. A.; Gerena, L.; Lopez-Sanchez, M.; Roncal, N. E.; Waters, N.C. Antimicrob. Agents Chemother. 2007, 51, 1926-1933. […] De, D.; Krogstad, F. M.; Cogswell, F. B.; Krogstad, D. J. Am. J. Trop. Med. Hyg. 1996, 55, 579-583. […] The basic tertiary amino function in the side chain is commonly believed to be crucial for the accumulation of the drug within the acidic food DV.\nDrug activities were assessed and IC50 were quantified essentially as described previously. Delarue, S.; Girault, S.; Maes, L.; Debreu-Fontaine, M. A.; Labaeid, M.; Grellier, P.; Sergheraert, C. Synthesis and in vitro and in vivo antimalarial activity of new 4-anilinoquinolines. J. Med. Chem. 2001, 44, 2827-2833; and O'Neill, P. M.; Willock, D. J.; Hawley, S. R.; Bray, P. G.; Storr, R. C.; Ward, S. A.; Park, B. K. Synthesis, antimalarial activity, and molecular modeling of tebuquine analogues. J. Med. Chem. 1997, 40, 437-448. The aminoquinolines were diluted using complete media under sterile conditions and plated in a 96 well plate format. Sorbitol synchronized cultures were utilized with >95% of the parasites at the ring stage. Cultures were diluted to give a working stock of 0.5% parasitemia and 2% hematocrit (final hematocrit 1% & 0.5% Parasitemia). The plates were incubated for 72 h at 37° C. After 72 h, 50 μL of 10×SYBR green I dye was added to each well, and the plate was incubated for 1 h at 37° C. Fluorescence was measured at 530 nm (490 nm excitation) using a spectra geminiEM plate reader. Data analysis was performed using sigma plot 9.0 software after downloading data in Excel format."}, "μ-oxo dimeric heme": {"system": "μ-oxo dimeric heme", "assay": "Heme affinity measurement, μ-oxo dimeric heme", "type": "binding", "settings": "aqueous solution", "method": "1.5 mL cuvettes containing freshly prepared samples of 4.8 μM heme were titrated with increasing concentrations (0-50 μM) of drug. Following each addition, the sample was mixed and heme absorbance then recorded at 402 nm. Control experiments were performed by titrating 4.8 μM heme with similar volumes of solvent and no drug present. To measure affinity for μ-oxo dimeric heme, the procedure was similar except hemin was first converted to dimeric form in mild alkaline solution, followed by titration to pH 7.5 using Hepes buffer. The absorbance peak analysis was done using Microsoft excel and Ka were extracted from the ΔAbs402 plots via Scatchard analysis using Microsoft Excel and Sigma plot 9.0.1 software."}, "hemozoin (Hz) formation": {"system": "hemozoin (Hz) formation", "assay": "Quantification of in vitro Hz formation inhibition", "type": "biochemical", "method": "A stock solution of 5 mM hemin (Fluka) in 0.1M NaOH was prepared and stored as small aliquots at -20° C. Fresh aliquots were thawed daily to room temperature before use. Lecithin stock solutions were prepared by dissolving in distilled water to 10 mg/ml and similarly stored. 0.5 M propionate was used to buffer experiments in the pH range 5.2-5.6. The assay mixture (1 mL volumes) contained: 200 μL lecithin solution ([…] final) 20 μL hematin (100 μM final concentration) 20 μ[…] propionate buffer (X) μL drug (dependant on the concentration required 0-1000 μM). The addition sequence involved first adding the lecithin followed by heme, HCl, propionate buffer and finally the drug. Each sample was prepared in triplicate. Following addition of the reagents the samples were incubated at 37° C. with constant shaking for 18 h. After 18 h the assay was stopped by spinning the samples at 13,200 rpm for 10 minutes followed by carefully aspirating off the supernatant. The pellet was then resuspended in 50 mM bicarbonate buffer pH 9.0 (1 mL) and gently shaken at room temperature for 30 minutes to dissolve uncrystallized heme. The samples were then centrifuged as above and the supernatant removed. […] The samples were then dissolved in 0.1M NaOH to solubilize β-hematin to free heme and β-hematin formed was then quantified via heme absorbance at 402 nm. Calibration curves were prepared by titrating increasing amounts of heme in the same solvent vs. absorbance at 402 nm."}, "[2]": {"assay": "pKa determination by acid/base titration", "type": "physicochemical", "settings": "distilled water; measured; read-out: quinolyl N pKa", "method": "SPARC pKa calculator is an online tool developed at the University of Georgia by S. W. Karickhoff, L. A. Carreira and S. H. Hilal. Experimental pKa were determined using an Accumet AB15 pH meter and a calomel electrode. 10 mM solutions of the drugs (as dibasic salts) were made in distilled H2O and titrated at room temperature (23.0±2.0° C.) using 0.1 M NaOH. Titration plots were generated and pKa's extracted via inflection points from the second derivative plots; (Δ^2pH/ΔV^2) vs. V, where V represents the volume of the titrant added and ΔV is the volume increment."}},
  "data": [
    {"smiles": "CCN(CC)CCCCOc1ccnc2cc(Cl)ccc12", "note": "[compound 93, O-(7-Chloro-4-quinolyl)-4-(N,N-diethylamino)butanol]", "values": [
      {"measurement": "fold lower IC50 relative to 98", "setting": "[1]", "value": 4, "unit": "fold"},
      {"measurement": "affinity (association constant Ka) vs. μ-oxo dimer", "setting": "μ-oxo dimeric heme", "value": "quite similar"},
      {"measurement": "fold higher IC50 for Hz inhibition relative to 98", "setting": "hemozoin (Hz) formation", "value": "roughly 5 fold"},
      {"measurement": "ability to inhibit Hz formation vs. that measured for CQ and 8", "setting": "hemozoin (Hz) formation; FIG. 26", "value": "significantly lower"},
      {"measurement": "pKa", "setting": "[2]", "value": 4.5}
    ]}
  ]
}
